Measured values from US8501936B2 (priority 2009, dated 2013).

Assays:
[1] = biological target: human JAK2 (Homo sapiens (Human), UniProt O60674); conditions: read-out: JAK2 IC50
[2] = biological target: human FAK (Homo sapiens (Human), UniProt Q05397); conditions: read-out: FAK IC50
Sequence of human FAK (Q05397 whole entry): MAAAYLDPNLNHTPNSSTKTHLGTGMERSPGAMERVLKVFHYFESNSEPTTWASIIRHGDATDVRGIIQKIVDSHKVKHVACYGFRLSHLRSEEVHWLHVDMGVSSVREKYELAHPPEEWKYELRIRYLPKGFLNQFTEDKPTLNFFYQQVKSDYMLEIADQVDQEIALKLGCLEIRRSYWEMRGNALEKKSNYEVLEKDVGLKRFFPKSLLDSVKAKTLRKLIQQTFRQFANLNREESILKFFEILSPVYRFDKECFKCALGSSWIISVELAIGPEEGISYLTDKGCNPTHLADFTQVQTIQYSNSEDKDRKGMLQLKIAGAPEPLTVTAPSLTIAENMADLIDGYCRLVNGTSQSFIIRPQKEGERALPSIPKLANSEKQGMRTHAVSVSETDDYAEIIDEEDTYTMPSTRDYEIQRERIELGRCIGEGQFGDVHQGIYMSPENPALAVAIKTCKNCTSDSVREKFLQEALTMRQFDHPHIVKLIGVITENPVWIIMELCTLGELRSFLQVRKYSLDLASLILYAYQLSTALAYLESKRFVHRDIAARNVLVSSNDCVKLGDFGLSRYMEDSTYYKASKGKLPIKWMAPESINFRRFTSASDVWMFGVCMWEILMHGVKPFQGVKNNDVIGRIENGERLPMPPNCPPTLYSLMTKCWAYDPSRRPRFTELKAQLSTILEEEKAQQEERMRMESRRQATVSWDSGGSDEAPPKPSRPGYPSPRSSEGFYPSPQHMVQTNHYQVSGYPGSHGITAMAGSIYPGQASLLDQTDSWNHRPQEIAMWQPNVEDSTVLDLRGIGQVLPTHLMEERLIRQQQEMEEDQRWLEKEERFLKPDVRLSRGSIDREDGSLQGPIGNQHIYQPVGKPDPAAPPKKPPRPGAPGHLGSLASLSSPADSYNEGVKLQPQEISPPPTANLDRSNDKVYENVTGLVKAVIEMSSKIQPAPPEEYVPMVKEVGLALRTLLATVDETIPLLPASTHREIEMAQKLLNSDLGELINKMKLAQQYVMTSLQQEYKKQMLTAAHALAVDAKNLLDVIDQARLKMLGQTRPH
Procedure: The ability of compounds to inhibit the kinase activity of baculovirus-expressed human FAK and PYK2 was measured using the 96-well plate TRF assay system described above for JAK2. […] For the FAK kinase assay, the reaction mixture (total volume=100 μL/well) contained 20 mM HEPES (pH 7.2), 10 μM ATP, 5 mM MgCl2, 0.5 mM DTT, 0.1% BSA, and test compound (diluted in DMSO; 2.5% DMSO final in assay). For PYK2, the 100 μL assay solution consisted of 20 mM HEPES (pH 7.2), 3 μM ATP, 5 mM MnCl2, 0.1% BSA, and test compound (diluted in DMSO; 2.5% DMSO final in assay). Enzyme (10 ng/mL FAK or 25 ng/mL PYK2) was added and the reaction was allowed to proceed at room temperature for 30 min. Detection of the phosphorylated product was performed by adding 100 μL/well of Eu—N1 labeled PY100 antibody diluted 1:75000 in 0.25% BSA in TBS-T (PerkinElmer #AD0041). […] Inhibition data were analyzed using ActivityBase and IC50 curves generated using XLFit.

Sequence of human JAK2 (O60674 815-1132): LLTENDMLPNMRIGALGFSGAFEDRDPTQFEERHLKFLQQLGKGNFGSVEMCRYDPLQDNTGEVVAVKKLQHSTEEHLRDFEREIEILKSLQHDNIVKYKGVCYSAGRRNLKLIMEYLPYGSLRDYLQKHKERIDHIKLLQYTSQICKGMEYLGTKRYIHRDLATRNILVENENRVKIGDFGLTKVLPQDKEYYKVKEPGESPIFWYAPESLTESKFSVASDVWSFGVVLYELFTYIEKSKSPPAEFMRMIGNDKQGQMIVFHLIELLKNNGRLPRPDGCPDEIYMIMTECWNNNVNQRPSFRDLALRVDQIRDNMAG

SMILES	IC50 [1] [nM]	IC50 [2] [nM]
COc1ccccc1-c1cccn2nc(Nc3ccc(N4CCOCC4)cc3)nc12 [Example 2, [8-(2-Methoxy-phenyl)-[1,2,4]triazolo[1,5-a]pyridin-2-yl]-(4-morpholin-4-yl-phenyl)-amine]	20	6500
CS(=O)(=O)c1ccc(-c2cccn3nc(Nc4ccc(N5CCOCC5)cc4)nc23)cc1 [Example 4, [8-(4-Methanesulfonyl-phenyl)-[1,2,4]triazolo[1,5-a]pyridin-2-yl]-(4-morpholin-4-yl-phenyl)-amine]	0.9	461
c1cncc(-c2cccn3nc(Nc4ccc(N5CCOCC5)cc4)nc23)c1 [Example 6, (4-Morpholin-4-yl-phenyl)-(8-pyridin-3-yl-[1,2,4]triazolo[1,5-a]pyridin-2-yl)-amine]	25.9	3000
COc1ccc(-c2cccn3nc(Nc4ccc(N5CCOCC5)cc4)nc23)cn1 [Example 8, [8-(6-Methoxy-pyridin-3-yl)-[1,2,4]triazolo[1,5-a]pyridin-2-yl]-(4-morpholin-4-yl-phenyl)-amine]	13.4	1480
CS(=O)(=O)c1ccc(-c2cccn3nc(Nc4ccc(OCCN5CCCC5)cc4)nc23)cc1 [Example 10, [8-(4-Methanesulfonyl-phenyl)-[1,2,4]triazolo[1,5-a]pyridin-2-yl]-[4-(2-pyrrolidin-1-yl-ethoxy)-phenyl]-amine]	1	206
c1cc(-c2ccncc2)c2nc(Nc3ccc(N4CCOCC4)cc3)nn2c1 [Example 11, (4-Morpholin-4-yl-phenyl)-(8-pyridin-4-yl-[1,2,4]triazolo[1,5-a]pyridin-2-yl)-amine]	5.5	6500
CS(=O)(=O)c1ccc(-c2cccc3nc(Nc4ccc(N5CCOCC5)cc4)nn23)cc1 [Example 12, [5-(4-Methanesulfonyl-phenyl)-[1,2,4]triazolo[1,5-a]pyridin-2-yl]-(4-morpholin-4-yl-phenyl)-amine]	0.7	434
CS(=O)(=O)c1cccc(-c2cccn3nc(Nc4ccc(OCCN5CCCC5)cc4)nc23)c1 [Example 13, [8-(3-Methanesulfonyl-phenyl)-[1,2,4]triazolo[1,5-a]pyridin-2-yl]-[4-(2-pyrrolidin-1-yl-ethoxy)-phenyl]-amine]	3	524
COc1ccccc1Nc1nc2c(-c3ccc(S(C)(=O)=O)cc3)cccn2n1 [Example 25, [8-(4-Methanesulfonyl-phenyl)-[1,2,4]triazolo[1,5-a]pyridin-2-yl]-(2-methoxy-phenyl)-amine]	1320	–
CS(=O)(=O)c1ccc(-c2cccn3nc(Nc4ccc(OCCN5CCOCC5)cc4)nc23)cc1 [Example 26, [8-(4-Methanesulfonyl-phenyl)-[1,2,4]triazolo[1,5-a]pyridin-2-yl]-[4-(2-morpholin-4-yl-ethoxy)-phenyl]-amine]	1.3	585
CS(=O)(=O)c1ccc(-c2cccn3nc(Nc4cccc(N5CCOCC5)c4)nc23)cc1 [Example 27, [8-(4-Methanesulfonyl-phenyl)-[1,2,4]triazolo[1,5-a]pyridin-2-yl]-(3-morpholin-4-yl-phenyl)-amine]	0.4	2020
CC1(C)CCC(C)(C)c2cc(Nc3nc4c(-c5ccc(S(C)(=O)=O)cc5)cccn4n3)ccc21 [Example 28, [8-(4-Methanesulfonyl-phenyl)-[1,2,4]triazolo[1,5-a]pyridin-2-yl]-(5,5,8,8-tetramethyl-5,6,7,8-tetrahydro-naphthalen-2-yl)-amine]	27.7	–
COc1ccc(Nc2nc3c(N4CCN(C)CC4)cccn3n2)cc1 [Example 30, (4-Methoxy-phenyl)-[8-(4-methyl-piperazin-1-yl)-[1,2,4]triazolo[1,5-a]pyridin-2-yl]-amine]	441	–
COc1ccc(Nc2nc3c(N4CCN(S(C)(=O)=O)CC4)cccn3n2)cc1 [Example 33, [8-(4-Methanesulfonyl-piperazin-1-yl)-[1,2,4]triazolo[1,5-a]pyridin-2-yl]-(4-methoxy-phenyl)-amine]	60.4	–
COc1ccc(Nc2nc3c(C4=CCN(S(C)(=O)=O)CC4)cccn3n2)cc1 [Example 34, [8-(1-Methanesulfonyl-1,2,3,6-tetrahydro-pyridin-4-yl)-[1,2,4]triazolo[1,5-a]pyridin-2-yl]-(4-methoxy-phenyl)-amine]	1	–
CN1CCN(c2ccc(Nc3nc4ccc(-c5ccc(S(C)(=O)=O)cc5)cn4n3)cc2)CC1 [Example 37, [6-(4-Methanesulfonyl-phenyl)-[1,2,4]triazolo[1,5-a]pyridin-2-yl]-[4-(4-methyl-piperazin-1-yl)-phenyl]-amine]	2970	–
COc1ccc(Nc2nc3c(NC4CCN(S(C)(=O)=O)CC4)cccn3n2)cc1 [Example 41, N(8)-(1-Methanesulfonyl-piperidin-4-yl)-N(2)-(4-methoxy-phenyl)-[1,2,4]triazolo[1,5-a]pyridine-2,8-diamine]	375	–

SMILES	IC50 [1] [nM]	IC50 [2] [nM]
CS(=O)(=O)c1ccc(-c2cccn3nc(Nc4ccc(OS(=O)(=O)C(F)(F)C(F)(F)C(F)(F)C(F)(F)F)cc4)nc23)cc1 [Example 45, 1,1,2,2,3,3,4,4,4-Nonafluoro-butane-1-sulfonic acid 4-[8-(4-methanesulfonyl-phenyl)-[1,2,4]triazolo[1,5-a]pyridin-2-ylamino]-phenyl ester]	106	–
CN1CCN(c2cccc(Nc3nc4c(-c5ccccc5S(C)(=O)=O)cccn4n3)c2)CC1 [Example 67, [8-(2-Methanesulfonyl-phenyl)-[1,2,4]triazolo[1,5-a]pyridin-2-yl]-[3-(4-methyl-piperazin-1-yl)-phenyl]-amine]	2500	–
CN1CCN(c2cccc(Nc3nc4c(Nc5ccccc5S(C)(=O)=O)cccn4n3)c2)CC1 [Example 68, N(8)-(2-Methanesulfonyl-phenyl)-N(2)-[3-(4-methyl-piperazin-1-yl)-phenyl]-[1,2,4]triazolo[1,5-a]pyridine-2,8-diamine]	29	–
CC(C)(C)OC(=O)N1CCN(c2ccc(Nc3nc4cccc(-c5ccccc5)n4n3)cc2)CC1 [Example 77, 4-[4-(5-Phenyl-[1,2,4]triazolo[1,5-a]pyridin-2-ylamino)-phenyl]-piperazine-1-carboxylic acid tert-butyl ester]	6.6	–
COc1cccc(Nc2nc3cccc(-c4cccc(S(C)(=O)=O)c4)n3n2)c1 [Example 79, [5-(3-Methanesulfonyl-phenyl)-[1,2,4]triazolo[1,5-a]pyridin-2-yl]-(3-methoxy-phenyl)-amine]	15.1	–
COc1ccccc1Nc1nc2cccc(-c3cccc(S(C)(=O)=O)c3)n2n1 [Example 80, [5-(3-Methanesulfonyl-phenyl)-[1,2,4]triazolo[1,5-a]pyridin-2-yl]-(2-methoxy-phenyl)-amine]	1210	–
CN1CCN(c2ccc(NC(=O)Nc3nc4cccc(-c5ccc(S(C)(=O)=O)cc5)n4n3)cc2)CC1 [Example 90, 1-[5-(4-Methanesulfonyl-phenyl)-[1,2,4]triazolo[1,5-a]pyridin-2-yl]-3-[4-(4-methyl-piperazin-1-yl)-phenyl]-urea]	1530	–
Cc1nn(C)c(C)c1Nc1nc2c(-c3ccc(S(C)(=O)=O)cc3)cccn2n1 [Example 210, [8-(4-Methanesulfonyl-phenyl)-[1,2,4]triazolo[1,5-a]pyridin-2-yl]-(1,3,5-trimethyl-1H-pyrazol-4-yl)-amine]	3000	–
CN1CCN(c2cccc(Nc3nc4c(Oc5ccc(S(C)(=O)=O)cc5)cccn4n3)c2)CC1 [Example 214, [8-(4-Methanesulfonyl-phenoxy)-[1,2,4]triazolo[1,5-a]pyridin-2-yl]-[3-(4-methyl-piperazin-1-yl)-phenyl]-amine]	1650	–
CC(C)(C)OC(=O)N1CCc2ccc(Nc3nc4c(-c5cccc6c5OC(F)(F)O6)cccn4n3)cc2CC1 [Example 243]	2110	–
CN1CCN(c2ccc(Nc3nc4c(O)cccn4n3)cc2)CC1 [Example 264, 2-[4-(4-Methyl-piperazin-1-yl)-phenylamino]-[1,2,4]triazolo[1,5-a]pyridin-8-ol]	567	–
Cc1cccn2nc(Nc3ccc(S(C)(=O)=O)cc3)nc12 [Example 265, (4-Methanesulfonyl-phenyl)-(8-methyl-[1,2,4]triazolo[1,5-a]pyridin-2-yl)-amine]	2620	–
CC(C)(C)OC(=O)N1CCc2ccc(Nc3nc4c(-c5cc(C(F)(F)F)ccc5F)cccn4n3)cc2CC1 [Example 269, [8-(2-Fluoro-5-trifluoromethyl-phenyl)-[1,2,4]triazolo[1,5-a]pyridin-2-ylamino]-[2,3,4,5-tetrahydro-1H-benzo[d]azopin-7-yl]-3-carboxylic acid tert-butyl ester]	586	–
CC(C)(C)OC(=O)N1CCC(c2ccc(Nc3nc4c(-c5cnn(-c6ccc(F)cc6)c5)cccn4n3)cc2)CC1 [Example 280, 4-{4-[8-(1-(4-Fluoro-phenyl)-1H-pyrazol-4-yl)-[1,2,4]triazolo[1,5-a]pyridine-2-ylamino]-phenyl}-piperidine-1-carboxylic acid tert-butyl ester]	1110	–
COc1cnc(-c2cccn3nc(Nc4ccc(C5CCN(C(=O)OC(C)(C)C)CC5)cc4)nc23)cn1 [Example 284, 4-{4-[8-(5-Methoxy-pyrazin-2-yl)-[1,2,4]triazolo[1,5-a]pyridine-2-ylamino]-phenyl}-piperidine-1-carboxylic acid tert-butyl ester]	1490	–
Cc1ccc(-n2cc(-c3cccn4nc(Nc5ccc(C6CCN(C(=O)OC(C)(C)C)CC6)cc5)nc34)cn2)cc1 [Example 287, 4-{4-[8-(1-p-Tolyl-1H-pyrazol-4-yl)-[1,2,4]triazolo[1,5-a]pyridine-2-ylamino]-phenyl}-piperidine-1-carboxylic acid tert-butyl ester]	1690	–
COc1ccc(C(F)(F)F)cc1Nc1cccn2nc(Nc3cccc(N4CCN(C)CC4)c3)nc12 [Example 290, N(8)-(2-Methoxy-5-trifluoromethyl-phenyl)-N(2)-[3-(4-methyl-piperazin-1-yl)-phenyl]-[1,2,4]triazolo[1,5-a]pyridine-2,8-diamine]	3000	–
